According to ChEMBL document CHEMBL4229569, “Structure-Based Design of 1-Heteroaryl-1,3-propanediamine Derivatives as a Novel Series of CC-Chemokine Receptor 5 Antagonists” (J Med Chem, 2018):
pIC50: −log10 of the molar value.

Experiments:
Cytochrome P450 2C19 = Cytochrome P450 2C19 (Homo sapiens, UniProt P33261); experiment: Inhibition of CYP2C19 (unknown origin); type: ADME
in vitro [1] = conditions: human, PBMC
Description: Therapeutic index, ratio of CC50 for human PBMC to IC50 for CCR5-dependent HIV1 SF162 infected in human PBMC cells

[2] = AUC (0 to infinity) in Sprague-Dawley rat at 20 mg/kg, po by LC-MS/MS analysis; type: ADME, organism-based; design: dose 20 mg/kg, route oral, time infinity; conditions: in vivo
[3] = target: C-C chemokine receptor type 5 (Homo sapiens, UniProt P51681); experiment: Antagonist activity at CCR5 (unknown origin) expressed in HEK293 cells co-expressing Galpha16 assessed as inhibition of RANTES-induced calcium flux preincubated for 10 mins followed by RANTES addition by fluo-4AM-based fluorescence assay; type: functional, cell-based
[4] = Half life in Sprague-Dawley rat at 10 mg/kg, iv by LC-MS/MS analysis; type: ADME, organism-based; conditions: in vivo
[5] = Clearance in Sprague-Dawley rat at 10 mg/kg, iv by LC-MS/MS analysis; type: ADME, organism-based; conditions: in vivo
[6] = system: Human immunodeficiency virus 1; experiment: microbe, parasite or virus in culture; conditions: Human immunodeficiency virus 1, SF162, PBMC, 168 h
Description: Antiviral activity against CCR5-dependent HIV1 SF162 infected in human PBMC assessed as reduction in virus infection measured after 7 days by luciferase reporter gene assay

[7] = AUC (0 to infinity) in dog at 3 mg/kg, iv by LC-MS/MS analysis; type: ADME, organism-based, Canis lupus familiaris; design: dose 3 mg/kg, route intravenous, time infinity; conditions: in vivo
[8] = Half life in dog at 3 mg/kg, iv by LC-MS/MS analysis; type: ADME, organism-based, Canis lupus familiaris; conditions: in vivo
[9] = Half life in dog at 15 mg/kg, po by LC-MS/MS analysis; type: ADME, organism-based, Canis lupus familiaris; conditions: in vivo
[10] = Tmax in Sprague-Dawley rat at 10 mg/kg, iv by LC-MS/MS analysis; type: ADME, organism-based; conditions: in vivo
in vitro [11] = conditions: human, PM1 cells
Description: Therapeutic index, ratio of CC50 for human PM1 cells to IC50 for CCR5-dependent HIV1 Ba-L infected in human PM1 cells

[12] = Tmax in dog at 15 mg/kg, po by LC-MS/MS analysis; type: ADME, organism-based, Canis lupus familiaris; conditions: in vivo
Cytochrome P450 3A4 [13] = target: T1, Cytochrome P450 3A4 (Homo sapiens, UniProt P08684); experiment: Inhibition of CYP3A4 (unknown origin) using testosterone as substrate; type: ADME
[14] = Oral bioavailability in Sprague-Dawley rat at 20 mg/kg by LC-MS/MS analysis; type: ADME, organism-based; conditions: in vivo
[15] = system: Human immunodeficiency virus 1; experiment: microbe, parasite or virus in culture; conditions: Human immunodeficiency virus 1, Ba-L, PM1, 120 h
Description: Antiviral activity against CCR5-dependent HIV1 Ba-L infected in human PM1 cells assessed as reduction in virus infection measured after 5 days by luciferase reporter gene assay

in vitro [16] = conditions: human, TZM-bl cells
Description: Therapeutic index, ratio of CC50 for human TZM-bl cells to EC50 for CCR5-dependent HIV1 SF162 infected in human TZM-bl cells

[17] = system: Human immunodeficiency virus 1; experiment: microbe, parasite or virus in culture; conditions: Human immunodeficiency virus 1, SF162, TZM-bl, 48 h
Description: Antiviral activity against CCR5-dependent HIV1 SF162 infected in human TZM-bl cells assessed as reduction in virus infection measured after 48 hrs post infection by luciferase reporter gene assay

[18] = system: Human immunodeficiency virus 1; experiment: microbe, parasite or virus in culture; conditions: Human immunodeficiency virus 1, SF162, HOS, 120 h
Description: Antiviral activity against CCR5-dependent HIV1 SF162 infected in human HOS cells assessed as reduction in virus infection measured after 5 days by luciferase reporter gene assay

[19] = Cmax in Sprague-Dawley rat at 20 mg/kg, po by LC-MS/MS analysis; type: ADME, organism-based; design: dose 20 mg/kg, route oral; conditions: in vivo
[20] = system: Human immunodeficiency virus 1; experiment: microbe, parasite or virus in culture; conditions: Human immunodeficiency virus 1, Ba-L, HOS, 120 h
Description: Antiviral activity against CCR5-dependent HIV1 Ba-L infected in human HOS cells assessed as reduction in virus infection measured after 5 days by luciferase reporter gene assay

[21] = Oral bioavailability in dog at 15 mg/kg by LC-MS/MS analysis; type: ADME, organism-based, Canis lupus familiaris; conditions: in vivo
[22] = MRT in dog at 3 mg/kg, iv by LC-MS/MS analysis; type: ADME, organism-based, Canis lupus familiaris; conditions: in vivo
[23] = MRT in Sprague-Dawley rat at 20 mg/kg, po by LC-MS/MS analysis; type: ADME, organism-based; conditions: in vivo
[24] = Half life in Sprague-Dawley rat at 20 mg/kg, po by LC-MS/MS analysis; type: ADME, organism-based; conditions: in vivo
[25] = Cmax in dog at 15 mg/kg, po by LC-MS/MS analysis; type: ADME, organism-based, Canis lupus familiaris; design: dose 15 mg/kg, route oral; conditions: in vivo
[26] = system: Human immunodeficiency virus 1; experiment: microbe, parasite or virus in culture; conditions: Human immunodeficiency virus 1, Ba-L, PBMC, 168 h
Description: Antiviral activity against CCR5-dependent HIV1 Ba-L infected in human PBMC assessed as reduction in virus infection measured 7 days by luciferase reporter gene assay

[27] = MRT in dog at 15 mg/kg, po by LC-MS/MS analysis; type: ADME, organism-based, Canis lupus familiaris; conditions: in vivo
Cytochrome P450 2C9 = Cytochrome P450 2C9 (Homo sapiens, UniProt P11712); experiment: Inhibition of CYP2C9 (unknown origin); type: ADME
[28] = MRT in Sprague-Dawley rat at 10 mg/kg, iv by LC-MS/MS analysis; type: ADME, organism-based; conditions: in vivo
[29] = target: Voltage-gated inwardly rectifying potassium channel KCNH2 (Homo sapiens, UniProt Q12809); experiment: Inhibition of human ERG expressed in CHO cells at holding potential of -80 mV after 60 secs by patch clamp assay; type: cell-based
[30] = Clearance in dog at 3 mg/kg, iv by LC-MS/MS analysis; type: ADME, organism-based, Canis lupus familiaris; conditions: in vivo
in vitro [31] = conditions: human, PBMC; remark: listed apart in the source
Description: Therapeutic index, ratio of CC50 for human PBMC to IC50 for CCR5-dependent HIV1 KM018 infected in human PBMC

[32] = Tmax in Sprague-Dawley rat at 20 mg/kg, po by LC-MS/MS analysis; type: ADME, organism-based; conditions: in vivo
Cytochrome P450 1A2 = target: T2, Cytochrome P450 1A2 (Homo sapiens, UniProt P05177); experiment: Inhibition of CYP1A2 (unknown origin); type: ADME
T2 sequence (P05177 whole entry): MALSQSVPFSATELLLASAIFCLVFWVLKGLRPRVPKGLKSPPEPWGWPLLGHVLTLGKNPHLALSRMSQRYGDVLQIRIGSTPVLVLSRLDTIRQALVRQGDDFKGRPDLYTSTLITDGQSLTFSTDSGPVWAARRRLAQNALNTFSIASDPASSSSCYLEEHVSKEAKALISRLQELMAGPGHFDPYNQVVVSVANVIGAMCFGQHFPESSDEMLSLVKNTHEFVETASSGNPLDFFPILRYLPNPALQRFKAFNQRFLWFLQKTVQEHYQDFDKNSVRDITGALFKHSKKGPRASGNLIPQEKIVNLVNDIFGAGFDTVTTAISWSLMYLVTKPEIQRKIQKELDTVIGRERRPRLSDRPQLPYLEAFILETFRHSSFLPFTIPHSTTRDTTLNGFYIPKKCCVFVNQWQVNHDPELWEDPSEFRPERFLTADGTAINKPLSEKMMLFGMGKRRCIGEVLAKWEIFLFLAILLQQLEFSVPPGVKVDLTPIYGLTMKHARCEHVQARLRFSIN

Cytochrome P450 2D6 = Cytochrome P450 2D6 (Homo sapiens, UniProt P10635); experiment: Inhibition of CYP2D6 (unknown origin); type: ADME
[33] = Cmax in Sprague-Dawley rat at 10 mg/kg, iv by LC-MS/MS analysis; type: ADME, organism-based; design: dose 10 mg/kg, route intravenous; conditions: in vivo
[34] = system: Human immunodeficiency virus 1; experiment: microbe, parasite or virus in culture; conditions: Human immunodeficiency virus 1, KM018, PBMC, 168 h
Description: Antiviral activity against CCR5-dependent HIV1 KM018 infected in human PBMC assessed as reduction in virus infection measured after 7 days by luciferase reporter gene assay

Cytochrome P450 3A4 [35] = target: T1, Cytochrome P450 3A4; experiment: Inhibition of CYP3A4 (unknown origin) using midazolam as substrate; type: ADME
[36] = Cytotoxicity against human TZM-bl cells after 48 hrs by MTT assay; type: cell-based
in vitro [37] = conditions: human, HOS cells
Description: Therapeutic index, ratio of CC50 for human HOS cells to IC50 for CCR5-dependent HIV1 SF162 infected in human HOS cells

[38] = AUC (0 to infinity) in dog at 15 mg/kg, po by LC-MS/MS analysis; type: ADME, organism-based, Canis lupus familiaris; design: dose 15 mg/kg, time infinity, route oral; conditions: in vivo
[39] = AUC (0 to infinity) in Sprague-Dawley rat at 10 mg/kg, iv by LC-MS/MS analysis; type: ADME, organism-based; design: dose 10 mg/kg, time infinity, route intravenous; conditions: in vivo
in vitro [40] = conditions: human, HOS cells; remark: listed apart in the source
Description: Therapeutic index, ratio of CC50 for human HOS cells to IC50 for CCR5-dependent HIV1 Ba-L infected in human HOS cells

in vitro [41] = conditions: human, PBMC; remark: listed apart in the source
Description: Therapeutic index, ratio of CC50 for human PBMC to IC50 for CCR5-dependent HIV1 Ba-L infected in human PBMC

T1 sequence (P08684 whole entry): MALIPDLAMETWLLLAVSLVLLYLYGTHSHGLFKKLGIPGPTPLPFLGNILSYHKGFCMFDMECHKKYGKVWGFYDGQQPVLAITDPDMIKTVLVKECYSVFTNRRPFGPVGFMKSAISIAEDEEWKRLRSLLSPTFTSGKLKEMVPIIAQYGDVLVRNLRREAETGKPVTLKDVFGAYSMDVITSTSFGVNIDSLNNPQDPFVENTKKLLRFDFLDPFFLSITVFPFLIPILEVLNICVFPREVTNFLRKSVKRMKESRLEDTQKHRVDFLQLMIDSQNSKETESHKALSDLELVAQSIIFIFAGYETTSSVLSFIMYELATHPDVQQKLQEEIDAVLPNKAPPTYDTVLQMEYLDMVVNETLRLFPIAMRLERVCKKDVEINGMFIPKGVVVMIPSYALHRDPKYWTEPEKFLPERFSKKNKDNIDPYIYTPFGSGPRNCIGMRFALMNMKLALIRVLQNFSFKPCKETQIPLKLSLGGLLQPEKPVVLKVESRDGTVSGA
Chain of Cytochrome P450 2C9 (P11712 whole entry): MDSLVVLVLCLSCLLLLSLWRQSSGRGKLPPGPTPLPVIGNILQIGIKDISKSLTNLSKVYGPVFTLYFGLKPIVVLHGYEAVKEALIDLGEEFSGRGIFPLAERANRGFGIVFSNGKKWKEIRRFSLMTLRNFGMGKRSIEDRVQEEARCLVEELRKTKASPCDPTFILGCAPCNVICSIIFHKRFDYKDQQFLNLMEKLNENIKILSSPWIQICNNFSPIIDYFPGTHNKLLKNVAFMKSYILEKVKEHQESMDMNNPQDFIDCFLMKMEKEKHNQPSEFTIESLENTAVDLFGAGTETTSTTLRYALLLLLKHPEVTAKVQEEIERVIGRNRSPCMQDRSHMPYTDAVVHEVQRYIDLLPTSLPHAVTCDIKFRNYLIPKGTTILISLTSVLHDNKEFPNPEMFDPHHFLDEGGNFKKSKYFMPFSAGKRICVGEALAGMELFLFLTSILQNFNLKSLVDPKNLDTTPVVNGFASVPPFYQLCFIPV
Chain of C-C chemokine receptor type 5 (P51681 whole entry): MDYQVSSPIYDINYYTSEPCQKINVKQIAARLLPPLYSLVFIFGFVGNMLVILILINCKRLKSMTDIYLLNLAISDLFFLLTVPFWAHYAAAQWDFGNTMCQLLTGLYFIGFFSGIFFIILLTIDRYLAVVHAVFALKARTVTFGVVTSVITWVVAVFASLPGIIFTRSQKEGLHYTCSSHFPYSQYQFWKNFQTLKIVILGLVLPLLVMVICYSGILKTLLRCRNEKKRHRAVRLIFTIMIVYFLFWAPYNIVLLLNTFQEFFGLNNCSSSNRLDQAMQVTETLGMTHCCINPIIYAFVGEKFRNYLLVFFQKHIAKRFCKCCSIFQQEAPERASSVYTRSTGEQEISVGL
Chain of Cytochrome P450 2C19 (P33261 whole entry): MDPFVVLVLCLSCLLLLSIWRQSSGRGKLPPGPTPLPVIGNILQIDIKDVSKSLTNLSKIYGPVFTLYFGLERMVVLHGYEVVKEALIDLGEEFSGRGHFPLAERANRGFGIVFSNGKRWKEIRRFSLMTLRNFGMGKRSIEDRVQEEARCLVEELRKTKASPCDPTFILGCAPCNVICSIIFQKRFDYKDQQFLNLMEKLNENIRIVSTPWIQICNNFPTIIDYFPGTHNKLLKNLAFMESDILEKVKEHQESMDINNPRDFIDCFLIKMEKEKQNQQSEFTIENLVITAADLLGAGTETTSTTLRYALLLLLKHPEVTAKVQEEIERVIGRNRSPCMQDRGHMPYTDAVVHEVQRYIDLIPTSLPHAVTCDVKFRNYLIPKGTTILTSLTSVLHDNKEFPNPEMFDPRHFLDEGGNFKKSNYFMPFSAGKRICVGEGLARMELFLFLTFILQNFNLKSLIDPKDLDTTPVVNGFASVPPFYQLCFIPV
Chain of Cytochrome P450 2D6 (P10635 whole entry): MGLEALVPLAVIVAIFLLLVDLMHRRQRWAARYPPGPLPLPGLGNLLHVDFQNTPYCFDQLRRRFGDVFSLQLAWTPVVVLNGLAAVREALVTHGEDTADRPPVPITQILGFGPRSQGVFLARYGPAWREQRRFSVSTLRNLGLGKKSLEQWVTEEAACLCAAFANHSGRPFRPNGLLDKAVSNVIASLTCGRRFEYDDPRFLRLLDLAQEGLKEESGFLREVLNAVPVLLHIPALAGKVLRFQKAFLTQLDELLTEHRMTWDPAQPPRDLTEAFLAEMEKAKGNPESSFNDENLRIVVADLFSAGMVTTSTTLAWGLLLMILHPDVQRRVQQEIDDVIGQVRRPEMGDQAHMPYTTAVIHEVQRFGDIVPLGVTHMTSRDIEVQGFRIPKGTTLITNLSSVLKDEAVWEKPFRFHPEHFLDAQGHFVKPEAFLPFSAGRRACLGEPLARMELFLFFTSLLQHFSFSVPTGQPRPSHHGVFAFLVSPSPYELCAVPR
Chain of Voltage-gated inwardly rectifying potassium channel KCNH2 (Q12809 whole entry): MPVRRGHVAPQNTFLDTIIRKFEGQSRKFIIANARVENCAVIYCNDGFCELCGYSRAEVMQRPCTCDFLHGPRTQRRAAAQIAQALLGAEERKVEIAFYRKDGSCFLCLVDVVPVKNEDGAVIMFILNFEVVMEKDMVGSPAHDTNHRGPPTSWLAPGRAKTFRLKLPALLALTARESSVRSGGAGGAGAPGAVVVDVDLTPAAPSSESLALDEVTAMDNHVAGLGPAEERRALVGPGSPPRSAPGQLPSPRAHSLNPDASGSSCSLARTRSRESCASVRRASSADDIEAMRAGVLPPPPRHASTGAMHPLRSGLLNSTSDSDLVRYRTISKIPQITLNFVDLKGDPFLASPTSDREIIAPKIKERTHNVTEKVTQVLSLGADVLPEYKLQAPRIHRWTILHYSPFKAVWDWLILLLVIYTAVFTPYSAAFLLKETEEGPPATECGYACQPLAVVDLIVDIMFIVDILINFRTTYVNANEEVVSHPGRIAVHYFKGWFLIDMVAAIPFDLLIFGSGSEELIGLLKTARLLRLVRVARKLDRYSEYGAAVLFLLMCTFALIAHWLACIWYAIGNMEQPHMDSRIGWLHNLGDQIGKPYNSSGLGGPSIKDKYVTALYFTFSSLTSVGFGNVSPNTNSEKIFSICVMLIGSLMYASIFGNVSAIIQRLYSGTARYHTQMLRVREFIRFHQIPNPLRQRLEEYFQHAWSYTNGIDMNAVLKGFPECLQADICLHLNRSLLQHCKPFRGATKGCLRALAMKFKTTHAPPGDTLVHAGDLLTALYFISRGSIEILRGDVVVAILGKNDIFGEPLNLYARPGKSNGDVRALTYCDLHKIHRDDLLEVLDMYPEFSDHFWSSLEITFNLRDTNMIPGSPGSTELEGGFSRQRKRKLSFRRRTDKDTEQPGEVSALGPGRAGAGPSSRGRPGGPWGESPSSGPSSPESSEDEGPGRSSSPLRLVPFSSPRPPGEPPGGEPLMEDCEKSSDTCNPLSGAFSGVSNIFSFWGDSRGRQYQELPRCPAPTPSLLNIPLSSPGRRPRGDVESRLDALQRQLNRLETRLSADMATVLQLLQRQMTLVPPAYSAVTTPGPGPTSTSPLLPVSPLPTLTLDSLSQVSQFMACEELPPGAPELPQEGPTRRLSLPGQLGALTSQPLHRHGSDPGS

Cc1nnc(C(C)C)n1[C@@H]1C[C@H]2CC[C@@H](C1)N2CC[C@H](NC(=O)C1CCCC1)c1cccs1
pIC50 (Cytochrome P450 2C19): < 4.60 | selectivity ratio (in vitro [1]): 6100 | AUC(0-inf) [2]: 1670 ng·h/mL | pIC50 [3]: 8.51 | half-life [4]: 78.6 min | clearance [5]: 66.5 mL/min/kg | pIC50 [6]: 6.91 | AUC(0-inf) [7]: 1100 ng·h/mL | half-life [8]: 54 min | half-life [9]: 150 min | Tmax [10]: 15 min | selectivity ratio (in vitro [11]): 220000 | Tmax [12]: 48 min | pIC50 (Cytochrome P450 3A4 [13]): < 4.60 | bioavailability [14]: 33.4% | pIC50 [15]: 8.47 | selectivity ratio (in vitro [16]): > 150000 | pIC50 [17]: 8.89 | pIC50 [18]: 7.68 | Cmax [19]: 436 ng/mL | pIC50 [20]: 8.80 | bioavailability [21]: 38.1% | MRT [22]: 42 min | MRT [23]: 181 min | half-life [24]: 99 min | Cmax [25]: 1160 ng/mL | pIC50 [26]: 6.89 | MRT [27]: 144 min | pIC50 (Cytochrome P450 2C9): < 4.60 | MRT [28]: 54.6 min | pIC50 [29]: 5.82 | clearance [30]: 46.7 mL/min/kg | selectivity ratio (in vitro [31]): 4000 | Tmax [32]: 120 min | pIC50 (Cytochrome P450 1A2): < 4.60 | pIC50 (Cytochrome P450 2D6): 4.77 | Cmax [33]: 2220 ng/mL | pIC50 [34]: 6.72 | pIC50 (Cytochrome P450 3A4 [35]): < 4.60 | CC50 at 48 h [36]: > 200000 nM | selectivity ratio (in vitro [37]): 25000 | AUC(0-inf) [38]: 2160 ng·h/mL | AUC(0-inf) [39]: 2500 ng·h/mL | selectivity ratio (in vitro [40]): 330000 | selectivity ratio (in vitro [41]): 5900

Cc1nnc(C(C)C)n1[C@@H]1C[C@H]2CC[C@@H](C1)N2CC[C@H](NC(=O)C1CCCCC1)c1cccs1
pIC50 (Cytochrome P450 2C19): < 4.60 | selectivity ratio (in vitro [1]): 509 | AUC(0-inf) [2]: 1510 ng·h/mL | pIC50 [3]: 8.64 | half-life [4]: 18.6 min | clearance [5]: 32.7 mL/min/kg | pIC50 [6]: 6.28 | Tmax [10]: 15 min | selectivity ratio (in vitro [11]): 44000 | pIC50 (Cytochrome P450 3A4 [13]): 4.66 | bioavailability [14]: 14.8% | pIC50 [15]: 8.09 | selectivity ratio (in vitro [16]): > 18000 | pIC50 [17]: 7.95 | pIC50 [18]: 7.36 | Cmax [19]: 631 ng/mL | pIC50 [20]: 7.90 | MRT [23]: 126 min | half-life [24]: 69.6 min | pIC50 [26]: 6.33 | pIC50 (Cytochrome P450 2C9): < 4.60 | MRT [28]: 48 min | pIC50 [29]: 5.69 | selectivity ratio (in vitro [31]): 529 | Tmax [32]: 15 min | pIC50 (Cytochrome P450 1A2): < 4.60 | pIC50 (Cytochrome P450 2D6): 4.82 | Cmax [33]: 4320 ng/mL | pIC50 [34]: 6.30 | pIC50 (Cytochrome P450 3A4 [35]): 4.91 | CC50 at 48 h [36]: > 200000 nM | selectivity ratio (in vitro [37]): 7800 | AUC(0-inf) [39]: 5110 ng·h/mL | selectivity ratio (in vitro [40]): 27000 | selectivity ratio (in vitro [41]): 575
